{
  "source": "ChEMBL document CHEMBL3885881",
  "about": "“DrugMatrix”",
  "organism": "Rattus norvegicus",
  "assay": "DrugMatrix - Regimen: Daily Repeat",
  "assay_type": "toxicity, organism-based, Sprague-Dawley",
  "set-up": "regimen Daily Repeat, gender Male, age 6-8 weeks",
  "details": "in vivo, po, 0 mg/kg, route oral GAVAGE, dose level Control, vehicle 100 % WATER; for ABSOLUTE BASOPHIL / ABSOLUTE EOSINOPHIL / ABSOLUTE LYMPHOCYTE / ABSOLUTE MONOCYTE / ABSOLUTE SEGMENTED NEUTROPHIL / BASOPHIL / EOSINOPHIL / ERYTHROCYTE COUNT / HEMATOCRIT / HEMOGLOBIN / LEUKOCYTE COUNT / LYMPHOCYTE / MEAN CORPUSCULAR HEMOGLOBIN / MEAN CORPUSCULAR HEMOGLOBIN CONCENTRATION / MEAN CORPUSCULAR VOLUME / MONOCYTE / NEUTROPHIL / NUCLEATED RED BLOOD CELLS / PLATELET COUNT: tissue Blood; for ALANINE AMINOTRANSFERASE / ALBUMIN / ALKALINE PHOSPHATASE / ASPARTATE AMINOTRANSFERASE / BLOOD UREA NITROGEN / CARBON DIOXIDE / CHLORIDE / CHOLESTEROL / CREATINE PHOSPHOKINASE / CREATININE / GLUCOSE / LACTATE DEHYDROGENASE / LIPASE / PHOSPHORUS / POTASSIUM / SODIUM / TOTAL BILIRUBIN / TOTAL PROTEIN / URIC ACID: tissue Plasma",
  "data": [
    {"smiles": "C[N+](C)(C)CCO.[Cl-]", "note": "[CHOLINE CHLORIDE]", "values": [
      {"measurement": "ABSOLUTE BASOPHIL", "setting": "72 h, time 3 day", "result": 0, "unit": "CELLS/uL"},
      {"measurement": "ABSOLUTE EOSINOPHIL", "setting": "72 h, time 3 day", "result": 0, "unit": "CELLS/uL"},
      {"measurement": "ABSOLUTE LYMPHOCYTE", "setting": "72 h, time 3 day", "result": 10386.33, "unit": "CELLS/uL"},
      {"measurement": "ABSOLUTE MONOCYTE", "setting": "72 h, time 3 day", "result": 88.5, "unit": "CELLS/uL"},
      {"measurement": "ABSOLUTE SEGMENTED NEUTROPHIL", "setting": "72 h, time 3 day", "result": 1008.5, "unit": "CELLS/uL"},
      {"measurement": "BASOPHIL", "setting": "72 h, time 3 day", "result": 0, "unit": "%"},
      {"measurement": "EOSINOPHIL", "setting": "72 h, time 3 day", "result": 0, "unit": "%"},
      {"measurement": "ERYTHROCYTE COUNT", "setting": "72 h, time 3 day", "result": 5.16, "unit": "x10E6/uL"},
      {"measurement": "HEMATOCRIT", "setting": "72 h, time 3 day", "result": 32.43, "unit": "%"},
      {"measurement": "HEMOGLOBIN", "setting": "72 h, time 3 day", "result": 12.98, "unit": "G/DL"},
      {"measurement": "LEUKOCYTE COUNT", "setting": "72 h, time 3 day", "result": 11.48, "unit": "x10E3/uL"},
      {"measurement": "LYMPHOCYTE", "setting": "72 h, time 3 day", "result": 92.33, "unit": "%"},
      {"measurement": "MEAN CORPUSCULAR HEMOGLOBIN", "setting": "72 h, time 3 day", "result": 25.23, "unit": "pg"},
      {"measurement": "MEAN CORPUSCULAR HEMOGLOBIN CONCENTRATION", "setting": "72 h, time 3 day", "result": 40.08, "unit": "G/DL"},
      {"measurement": "MEAN CORPUSCULAR VOLUME", "setting": "72 h, time 3 day", "result": 62.95, "unit": "fL"},
      {"measurement": "MONOCYTE", "setting": "72 h, time 3 day", "result": 0.67, "unit": "%"},
      {"measurement": "NEUTROPHIL", "setting": "72 h, time 3 day", "result": 7, "unit": "%"},
      {"measurement": "NUCLEATED RED BLOOD CELLS", "setting": "72 h, time 3 day", "result": "0 /100WBC"},
      {"measurement": "PLATELET COUNT", "setting": "72 h, time 3 day", "result": 1016.67, "unit": "x10E3/uL"},
      {"measurement": "ALANINE AMINOTRANSFERASE", "setting": "72 h, time 3 day", "result": 62.17, "unit": "u/L"},
      {"measurement": "ALBUMIN", "setting": "72 h, time 3 day", "result": 3.95, "unit": "G/DL"},
      {"measurement": "ALKALINE PHOSPHATASE", "setting": "72 h, time 3 day", "result": 363.5, "unit": "u/L"},
      {"measurement": "ASPARTATE AMINOTRANSFERASE", "setting": "72 h, time 3 day", "result": 118, "unit": "u/L"},
      {"measurement": "BLOOD UREA NITROGEN", "setting": "72 h, time 3 day", "result": 14.5, "unit": "mg/dL"},
      {"measurement": "CARBON DIOXIDE", "setting": "72 h, time 3 day", "result": 22.83, "unit": "mmol/L"},
      {"measurement": "CHLORIDE", "setting": "72 h, time 3 day", "result": 100.67, "unit": "MEQ/L"},
      {"measurement": "CHOLESTEROL", "setting": "72 h, time 3 day", "result": 66, "unit": "mg/dL"},
      {"measurement": "CREATINE PHOSPHOKINASE", "setting": "72 h, time 3 day", "result": 1308.83, "unit": "u/L"},
      {"measurement": "CREATININE", "setting": "72 h, time 3 day", "result": 0.22, "unit": "mg/dL"},
      {"measurement": "GLUCOSE", "setting": "72 h, time 3 day", "result": 187.5, "unit": "mg/dL"},
      {"measurement": "LACTATE DEHYDROGENASE", "setting": "72 h, time 3 day", "result": 380.17, "unit": "u/L"},
      {"measurement": "LIPASE", "setting": "72 h, time 3 day", "result": 16.17, "unit": "u/L"},
      {"measurement": "PHOSPHORUS", "setting": "72 h, time 3 day", "result": 14.27, "unit": "mg/dL"},
      {"measurement": "POTASSIUM", "setting": "72 h, time 3 day", "result": 6.8, "unit": "MEQ/L"},
      {"measurement": "SODIUM", "setting": "72 h, time 3 day", "result": 142.53, "unit": "MEQ/L"},
      {"measurement": "TOTAL BILIRUBIN", "setting": "72 h, time 3 day", "result": 0.2, "unit": "mg/dL"},
      {"measurement": "TOTAL PROTEIN", "setting": "72 h, time 3 day", "result": 5.68, "unit": "G/DL"},
      {"measurement": "URIC ACID", "setting": "72 h, time 3 day", "result": 2.87, "unit": "mg/dL"},
      {"measurement": "ABSOLUTE BASOPHIL", "setting": "120 h, time 5 day", "result": 0, "unit": "CELLS/uL"},
      {"measurement": "ABSOLUTE EOSINOPHIL", "setting": "120 h, time 5 day", "result": 80, "unit": "CELLS/uL"},
      {"measurement": "ABSOLUTE LYMPHOCYTE", "setting": "120 h, time 5 day", "result": 13301.33, "unit": "CELLS/uL"},
      {"measurement": "ABSOLUTE MONOCYTE", "setting": "120 h, time 5 day", "result": 180.83, "unit": "CELLS/uL"},
      {"measurement": "ABSOLUTE SEGMENTED NEUTROPHIL", "setting": "120 h, time 5 day", "result": 1187.83, "unit": "CELLS/uL"},
      {"measurement": "BASOPHIL", "setting": "120 h, time 5 day", "result": 0, "unit": "%"},
      {"measurement": "EOSINOPHIL", "setting": "120 h, time 5 day", "result": 0.5, "unit": "%"},
      {"measurement": "ERYTHROCYTE COUNT", "setting": "120 h, time 5 day", "result": 5.54, "unit": "x10E6/uL"},
      {"measurement": "HEMATOCRIT", "setting": "120 h, time 5 day", "result": 35.65, "unit": "%"},
      {"measurement": "HEMOGLOBIN", "setting": "120 h, time 5 day", "result": 14.22, "unit": "G/DL"},
      {"measurement": "LEUKOCYTE COUNT", "setting": "120 h, time 5 day", "result": 14.75, "unit": "x10E3/uL"},
      {"measurement": "LYMPHOCYTE", "setting": "120 h, time 5 day", "result": 90.67, "unit": "%"},
      {"measurement": "MEAN CORPUSCULAR HEMOGLOBIN", "setting": "120 h, time 5 day", "result": 25.65, "unit": "pg"},
      {"measurement": "MEAN CORPUSCULAR HEMOGLOBIN CONCENTRATION", "setting": "120 h, time 5 day", "result": 39.88, "unit": "G/DL"},
      {"measurement": "MEAN CORPUSCULAR VOLUME", "setting": "120 h, time 5 day", "result": 64.35, "unit": "fL"},
      {"measurement": "MONOCYTE", "setting": "120 h, time 5 day", "result": 1, "unit": "%"},
      {"measurement": "NEUTROPHIL", "setting": "120 h, time 5 day", "result": 7.83, "unit": "%"},
      {"measurement": "NUCLEATED RED BLOOD CELLS", "setting": "120 h, time 5 day", "result": "0.17 /100WBC"},
      {"measurement": "PLATELET COUNT", "setting": "120 h, time 5 day", "result": 1285.33, "unit": "x10E3/uL"},
      {"measurement": "ALANINE AMINOTRANSFERASE", "setting": "120 h, time 5 day", "result": 51.67, "unit": "u/L"},
      {"measurement": "ALBUMIN", "setting": "120 h, time 5 day", "result": 4.08, "unit": "G/DL"},
      {"measurement": "ALKALINE PHOSPHATASE", "setting": "120 h, time 5 day", "result": 391.5, "unit": "u/L"},
      {"measurement": "ASPARTATE AMINOTRANSFERASE", "setting": "120 h, time 5 day", "result": 99.5, "unit": "u/L"},
      {"measurement": "BLOOD UREA NITROGEN", "setting": "120 h, time 5 day", "result": 15.5, "unit": "mg/dL"},
      {"measurement": "CARBON DIOXIDE", "setting": "120 h, time 5 day", "result": 28.33, "unit": "mmol/L"},
      {"measurement": "CHLORIDE", "setting": "120 h, time 5 day", "result": 101.83, "unit": "MEQ/L"},
      {"measurement": "CHOLESTEROL", "setting": "120 h, time 5 day", "result": 67.83, "unit": "mg/dL"},
      {"measurement": "CREATINE PHOSPHOKINASE", "setting": "120 h, time 5 day", "result": 771.33, "unit": "u/L"},
      {"measurement": "CREATININE", "setting": "120 h, time 5 day", "result": 0.23, "unit": "mg/dL"},
      {"measurement": "GLUCOSE", "setting": "120 h, time 5 day", "result": 156.5, "unit": "mg/dL"},
      {"measurement": "LACTATE DEHYDROGENASE", "setting": "120 h, time 5 day", "result": 544.33, "unit": "u/L"},
      {"measurement": "LIPASE", "setting": "120 h, time 5 day", "result": 10.17, "unit": "u/L"},
      {"measurement": "PHOSPHORUS", "setting": "120 h, time 5 day", "result": 12.03, "unit": "mg/dL"},
      {"measurement": "POTASSIUM", "setting": "120 h, time 5 day", "result": 6.81, "unit": "MEQ/L"},
      {"measurement": "SODIUM", "setting": "120 h, time 5 day", "result": 144.13, "unit": "MEQ/L"},
      {"measurement": "TOTAL BILIRUBIN", "setting": "120 h, time 5 day", "result": 0.22, "unit": "mg/dL"},
      {"measurement": "TOTAL PROTEIN", "setting": "120 h, time 5 day", "result": 6, "unit": "G/DL"},
      {"measurement": "URIC ACID", "setting": "120 h, time 5 day", "result": 2.18, "unit": "mg/dL"}
    ]}
  ]
}
